The values below come from the PolyMetriX glass transition set.

Test in series [1]: not given
This is another data set of the same source.

Test in series [2]: not given
The source holds these as a separate data set.

Test in series [3]: not given
This is another data set of the same source.

Test in series [4]: not given
This is another data set of the same source.

± gives the standard deviation of the reports.

`*c1ccc2c(c1)C(CCCCCCCC)(CCCCCCCC)c1cc(-c3ccc(-c4c(-c5ccccc5)c(-c5ccccc5)c(-c5ccc(*)s5)c5nc(-c6ccccc6)c(-c6ccccc6)nc45)s3)ccc1-2` (repeat unit) came in with a glass transition temperature of 192.00 °C.

The compound `*c1ccc2c(c1)C(CCCCCCCC)(CCCCCCCC)c1cc(-c3ccc(-c4ccc(*)s4)s3)ccc1-2` (repeat unit) showed a glass transition temperature of 102.00 °C.

For `*c1ccc2c(c1)N(CC(CCCCCCCC)CCCCCCCCCC)C(=O)/C2=C1/C(=O)N(CC(CCCCCCCC)CCCCCCCCCC)c2cc(-c3ccc(-c4ccc(*)s4)s3)ccc21` (repeat unit), the glass transition temperature turned out to be 65.00 °C.

Turning to `*c1cc2c(s1)c1sc(-c3sc(-c4ccc(-c5cc(CCCCCC)c(*)s5)c5nsnc45)cc3CCCCCC)cc1n2CC(CC)CCCC` (repeat unit), the glass transition temperature was 90.00 °C.

On to `*c1ccc2c(c1)C(CCCCCCCC)(CCCCCCCC)c1cc(-c3ccc(-c4ccc(-c5ccc(*)s5)c5nsnc45)s3)ccc1-2` (repeat unit), for which the glass transition temperature stood at 126.00 °C.

The compound `*c1ccc2c(c1)C(=O)N(c1cccc(S(=O)(=O)c3cccc(N4C(=O)c5ccc(*)cc5C4=O)c3)c1)C2=O` (repeat unit) displayed a glass transition temperature in series [1] of 260.00 °C.

In series [1], `*c1cccc2c1C(=O)N(c1ccc(Cc3ccc(N4C(=O)c5cccc(*)c5C4=O)c(C)c3)cc1C)C2=O` (repeat unit) registered a glass transition temperature of 299.50 ± 0.7 °C.

In series [1], `*c1cccc2c1C(=O)N(c1ccc(Oc3ccc(N4C(=O)c5cccc(*)c5C4=O)cc3)cc1)C2=O` (repeat unit) had a glass transition temperature of 306.00 ± 26 °C.

The compound `*Oc1cccc(C(=O)c2ccc(Oc3ccc4c(c3)C(=O)N(c3ccc(Oc5ccc(N6C(=O)c7ccc(*)cc7C6=O)cc5)cc3)C4=O)cc2)c1` (repeat unit) yielded a glass transition temperature in series [1] of 210.00 °C.

In the case of `*Sc1ccc2c(c1)C(=O)N(c1ccc(Oc3ccc(Oc4ccc(N5C(=O)c6cccc(*)c6C5=O)cc4)cc3)cc1)C2=O` (repeat unit), the glass transition temperature in series [1] was 238.00 ± 5.7 °C.

With `*Oc1cccc(C(=O)c2ccc(Oc3cccc4c3C(=O)N(c3cccc(N5C(=O)c6cccc(*)c6C5=O)c3)C4=O)cc2)c1` (repeat unit), in series [1], the glass transition temperature is 248.00 °C.

In series [1], `*Oc1ccc2c(c1)C(=O)N(c1cccc(Oc3ccc(C(=O)c4ccc(Oc5cccc(N6C(=O)c7cccc(*)c7C6=O)c5)cc4)cc3)c1)C2=O` (repeat unit) displayed a glass transition temperature of 205.50 ± 2.1 °C.

For `*c1ccc(C(=O)c2ccccc2-n2c(=O)c3cc4c(=O)n(*)c(=O)c4cc3c2=O)cc1` (repeat unit), the glass transition temperature in series [1] is 321.00 °C.

`*c1ccc(Oc2ccccc2N2C(=O)c3cc4c(cc3C2=O)C(=O)N(*)C4)cc1` (repeat unit) registered a glass transition temperature in series [1] of 386.00 °C.

On to `*CC(*)c1ccc(OC)cc1C` (repeat unit) [Poly(4-methoxy-2-methyl styrene) ], for which, in series [2], the glass transition temperature amounted to 87.4 ± 3.5 °C.

For the compound `*CC(*)C(=O)NC(C)CC` (repeat unit) [Poly(N-sec-butylacrylamide)], the glass transition temperature in series [3] was determined as 117 °C.

On to `*CC(*)(C)C(=O)OCC(C)C` (repeat unit) [Poly(isobutyl methacrylate) ], for which the glass transition temperature in series [2] was 47.4 ± 0.7 °C.

Consider `*CC(*)(C)C(=O)OCCCCCCCC(C)C` (repeat unit) [Poly(isodecyl methacrylate)], for which the glass transition temperature in series [3] is -41 °C.

`*CC(*)c1cccc(CO)c1` (repeat unit) [Poly(m-hydroxymethyl styrene) ] showed a glass transition temperature in series [2] of 124.4 ± 0.7 °C.

In turn, `*CC(*)c1ccccc1OCCCCCCCC` (repeat unit) [Poly(o-n-octoxy styrene) ] gave a glass transition temperature in series [2] of 12 ± 1.4 °C.

On to `*CC(*)c1ccc(C(C)CC)cc1` (repeat unit) [Poly(p-sec-butyl styrene) ], for which, in series [2], the glass transition temperature was 85.4 ± 0.7 °C.

In series [4], `*C=C(*)c1ccccc1` (repeat unit) [Poly(phenylacetylene)] gave a glass transition temperature of 51 °C.

`*C(=O)c1ccc2c(c1)C(=O)N(c1cccc(C(=O)c3cccc(N4C(=O)c5ccc(*)cc5C4=O)c3)c1)C2=O` (repeat unit) [Polyimide]: the glass transition temperature in series [1] was determined as 220 ± 130 °C.

`*CCCCCCO*` (repeat unit) [Polyoxyhexamethylene ] returned a glass transition temperature in series [2] of -71.6 ± 3.5 °C.
